Source: PubChem BioAssay AID2022 (NMMLSC, 2009)
Calls of active or inactive are those of the source. The rule behind the calls is not given here.

Molecular target: Cell division control protein 42 homolog (Homo sapiens) (UniProt P60953)
Assay: wild-type Cdc42 GTP-binding inhibitors, SAR follow-up, biochemical, bead-based multiplex flow cytometry, additional SAR set (AID 2022)
Conditions: fluorescent GTP binding; for Ki: measured here: Ki for Cdc42 wildtype

Cell division control protein 42 homolog (Homo sapiens), sequence (P60953 whole entry, looked up): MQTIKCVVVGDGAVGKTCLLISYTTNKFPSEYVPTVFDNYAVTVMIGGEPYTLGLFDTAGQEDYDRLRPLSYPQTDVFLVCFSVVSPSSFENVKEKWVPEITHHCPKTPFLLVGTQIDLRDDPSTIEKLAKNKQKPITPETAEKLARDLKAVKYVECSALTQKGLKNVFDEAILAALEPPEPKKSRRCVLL

Ki [µM]	EC50	SMILES
3.51	–	CC(C)Cc1ccc([C@H](C)C(=O)O)cc1
–	> 30 µM (inactive)	O=C1C(c2c(O)[nH]c3c(Br)cccc23)=Nc2ccccc21
–	> 30 µM (inactive)	O=C1C(c2c(O)[nH]c3ccccc23)=Nc2ccccc21
–	> 30 µM (inactive)	O=C1N=c2ccccc2=C1c1[nH]c(=O)[nH]c1O
4.81	–	COc1ccc(S(=O)(=O)n2c(N)c(C#N)c(-c3cncc(Br)c3)c2C(=O)c2ccccc2)cc1
–	> 30 µM (inactive)	O=C1C(c2c(O)[nH]c3ccc(Br)cc23)=Nc2ccccc21
2.37	–	COc1ccc(-c2c(C#N)c(N)n(S(C)(=O)=O)c2C(=O)c2ccccc2)cc1Br
5.93	inactive	O=Nc1c(-c2c(O)[nH]c3c(F)cccc23)[nH]c2ccccc12
0.01	inactive	O=C1C(c2c(O)[nH]c3c(Cl)cccc23)=Nc2ccccc21

Continued, molecule first:

SMILES	Ki [µM]	EC50
N#Cc1c(-c2ccc(Cl)cc2)c(C(=O)c2ccccc2)n(S(=O)(=O)c2ccc([N+](=O)[O-])cc2)c1N	1.52	–
O=Nc1c(-c2c(O)[nH]c3c(Br)cccc23)[nH]c2ccccc12	–	> 30 µM (inactive)
O=C1N=c2ccccc2=C1c1[nH]c(=S)[nH]c1O	–	> 30 µM (inactive)
O=Nc1c(-c2c(O)[nH]c3c(Cl)cccc23)[nH]c2ccccc12	–	> 30 µM (inactive)
O=Nc1c(-c2c(O)[nH]c3ccccc23)[nH]c2ccccc12	–	> 30 µM (inactive)
O=C1C(c2c(O)[nH]c3c(F)cccc23)=Nc2ccccc21	–	> 30 µM (inactive)
O=Nc1c(-c2c(O)[nH]c3ccc(Br)cc23)[nH]c2ccccc12	–	> 30 µM (inactive)
